Test results from patent US4753953A, “Pyridonecarboxylic acid derivatives and antibacterial pharmaceutical compositions thereof” (priority 1985, dated 1988).
Converted amounts (≈) assume the structure as drawn. Where two headings read alike, the source gives them in different places.

Key:
[1] = system: Staphylococcus aureus 209 P; assay: MIC, in vitro antibacterial activity (standard strains); type: cell-based; conditions: Staphylococcus aureus, 209P; 10^6 cells/ml; Gram +; read-out: MIC
S. aureus Smith = assay: as above; type: cell-based, Staphylococcus aureus; conditions: Staphylococcus aureus; 10^6 cells/ml; Gram +; read-out: MIC
S. epidermidis IID 866 = assay: as above; type: cell-based; conditions: Staphylococcus epidermidis, IID866; 10^6 cells/ml; Gram +; read-out: MIC
[2] = system: Streptococcus pyogenes (S-8); assay: as above; type: cell-based; conditions: Streptococcus pyogenes; 10^6 cells/ml; Gram +; read-out: MIC
S. pyogenes IID 692 = assay: as above; type: cell-based, Streptococcus pyogenes; conditions: Streptococcus pyogenes, IID692; 10^6 cells/ml; Gram +; read-out: MIC
E. faecalis IID 682 = assay: as above; type: cell-based; conditions: Enterococcus faecalis, IID682; 10^6 cells/ml; Gram +; read-out: MIC
E. coli ATCC 10536 = assay: as above; type: cell-based, Escherichia coli; conditions: Escherichia coli, ATCC10536; 10^6 cells/ml; Gram -; read-out: MIC
[3] = system: Proteus vulgaris IFO 3167; assay: as above; type: cell-based; conditions: Proteus vulgaris, IFO3167; 10^6 cells/ml; Gram -; read-out: MIC
P. mirabilis IID 994 = assay: as above; type: cell-based; conditions: Proteus mirabilis, IID994; 10^6 cells/ml; Gram -; read-out: MIC
[4] = system: Morganella morganii IID 602; assay: as above; type: cell-based; conditions: Morganella morganii, IID602; 10^6 cells/ml; Gram -; read-out: MIC
[5] = system: Klebsiella pneumoniae KY(GN)6445; assay: as above; type: cell-based; conditions: Klebsiella pneumoniae; 10^6 cells/ml; Gram -; read-out: MIC
[6] = system: Enterobacter cloacae IID 977; assay: as above; type: cell-based; conditions: Enterobacter cloacae, IID977; 10^6 cells/ml; Gram -; read-out: MIC
[7] = system: Citrobacter freundii IID 976; assay: as above; type: cell-based; conditions: Citrobacter freundii, IID976; 10^6 cells/ml; Gram -; read-out: MIC
[8] = system: Serratia marcescens IID 618; assay: as above; type: cell-based; conditions: Serratia marcescens, IID618; 10^6 cells/ml; Gram -; read-out: MIC
Shigella sonnei IID 969 = assay: as above; type: cell-based; conditions: Shigella sonnei, IID969; 10^6 cells/ml; Gram -; read-out: MIC
Protocol: Minimal inhibitory concentrations (MICs) were determined in accordance with the method recommended by Japan Society of Chemotherapy.

[9] = system: Salmonella enteritidis IID 604; assay: as above; type: cell-based; conditions: Salmonella enterica; 10^6 cells/ml; Gram -; read-out: MIC
[10] = system: Pseudomonas aeruginosa V-1; assay: as above; type: cell-based; conditions: Pseudomonas aeruginosa, V1; 10^6 cells/ml; Gram -; read-out: MIC
P. aeruginosa IID 1210 = assay: as above; type: cell-based, Pseudomonas aeruginosa; conditions: Pseudomonas aeruginosa, IID1210; 10^6 cells/ml; Gram -; read-out: MIC
P. cepacia GIFU 518 = assay: as above; type: cell-based; conditions: Burkholderia cepacia, GIFU518
[11] = system: Yersinia enterocolitica IID 981; assay: as above; type: cell-based; conditions: Yersinia enterocolitica, IID981; 10^6 cells/ml; Gram -; read-out: MIC
[12] = system: Alcaligenes faecalis 0114002; assay: as above; type: cell-based; conditions: Alcaligenes faecalis, 0114002; 10^6 cells/ml; Gram -; read-out: MIC
[13] = system: Bacteroides fragilis GM 7000; assay: as above; type: cell-based; conditions: Bacteroides fragilis, GM7000; 10^6 cells/ml; Gram -; read-out: MIC
B. fragilis 0558 = assay: as above; type: cell-based, Bacteroides fragilis; conditions: Bacteroides fragilis, 0558; 10^6 cells/ml; Gram -; read-out: MIC
B. fragilis 25285 = assay: as above; type: cell-based, Bacteroides fragilis; conditions: Bacteroides fragilis, 25285; 10^6 cells/ml; Gram -; read-out: MIC
B. distasonis 8503 = assay: as above; type: cell-based; conditions: Parabacteroides distasonis, 8503; 10^6 cells/ml; Gram -; read-out: MIC
[14] = system: B. thetaiotaomicron (0661); assay: as above; type: cell-based; conditions: Bacteroides thetaiotaomicron; 10^6 cells/ml; Gram -; read-out: MIC
[15] = system: Fusobacterium mortiferum 4249; assay: as above; type: cell-based; conditions: Fusobacterium mortiferum, 4249; 10^6 cells/ml; Gram -; read-out: MIC
F. varium KYA 8501 = assay: as above; type: cell-based; conditions: Fusobacterium varium, KYA8501; 10^6 cells/ml; Gram -; read-out: MIC
[16] = system: Eubacterium lentum GAI 5242; assay: as above; type: cell-based; conditions: Eggerthella lenta, GAI5242; 10^6 cells/ml; Gram +; read-out: MIC
C. perfringens KYA 13123 = assay: microbe, parasite or virus in culture; type: cell-based; conditions: Clostridium perfringens, KYA13123
C. ramosum = assay: MIC, in vitro antibacterial activity (standard strains); type: cell-based; conditions: Thomasclavelia ramosa; 10^6 cells/ml; Gram +; read-out: MIC
[17] = system: Peptostreptococcus anaerobius KYA 27337; assay: as above; type: cell-based; conditions: Peptostreptococcus anaerobius, KYA27337; 10^6 cells/ml; Gram +; read-out: MIC

Q: Which results are given for `CC1CN(c2c(F)cc3c(=O)c(C(=O)O)cn(C4CC4)c3c2Cl)CC1N` (stereo not shown) [Example 7, 7-(3-Amino-4-methyl-1-pyrrolidinyl)-8-chloro-1-cyclopropyl-6-fluoro-1,4-dihydro-4-oxo-3-quinolinecarboxylic acid]?
A: MIC [1]: 0.025 µg/mL (≈ 0.0658 µM); MIC (S. aureus Smith): 0.05 µg/mL (≈ 0.132 µM); MIC (S. epidermidis IID 866): 0.05 µg/mL (≈ 0.132 µM); MIC [2]: 0.1 µg/mL (≈ 0.263 µM); MIC (S. pyogenes IID 692): 0.1 µg/mL (≈ 0.263 µM); MIC (E. faecalis IID 682): 0.1 µg/mL (≈ 0.263 µM); MIC (E. coli ATCC 10536): 0.0125 µg/mL (≈ 0.0329 µM); MIC [3]: 0.0125 µg/mL (≈ 0.0329 µM); MIC (P. mirabilis IID 994): 0.025 µg/mL (≈ 0.0658 µM); MIC [4]: 0.05 µg/mL (≈ 0.132 µM); MIC [5]: 0.0125 µg/mL (≈ 0.0329 µM); MIC [6]: 0.05 µg/mL (≈ 0.132 µM); MIC [7]: 0.025 µg/mL (≈ 0.0658 µM); MIC [8]: 0.05 µg/mL (≈ 0.132 µM); MIC (Shigella sonnei IID 969): 0.0063 µg/mL (≈ 0.0166 µM); MIC [9]: 0.025 µg/mL (≈ 0.0658 µM); MIC [10]: 0.2 µg/mL (≈ 0.527 µM); MIC (P. aeruginosa IID 1210): 0.39 µg/mL (≈ 1.03 µM); MIC (P. cepacia GIFU 518): 0.2 µg/mL (≈ 0.527 µM); MIC [11]: 0.025 µg/mL (≈ 0.0658 µM); MIC [12]: 0.1 µg/mL (≈ 0.263 µM); MIC [13]: 0.1 µg/mL (≈ 0.263 µM); MIC (B. fragilis 0558): 0.05 µg/mL (≈ 0.132 µM); MIC (B. fragilis 25285): 0.05 µg/mL (≈ 0.132 µM); MIC (B. distasonis 8503): 0.39 µg/mL (≈ 1.03 µM); MIC [14]: 0.2 µg/mL (≈ 0.527 µM); MIC [15]: 0.2 µg/mL (≈ 0.527 µM); MIC (F. varium KYA 8501): 0.78 µg/mL (≈ 2.05 µM); MIC [16]: 0.1 µg/mL (≈ 0.263 µM); MIC (C. perfringens KYA 13123): 0.1 µg/mL (≈ 0.263 µM); MIC (C. ramosum): 0.78 µg/mL (≈ 2.05 µM); MIC [17]: 0.2 µg/mL (≈ 0.527 µM)

Q: For `CNCC1CN(c2c(F)cc3c(=O)c(C(=O)O)cn(C4CC4)c3c2Cl)CC1C` (stereo not shown) [Example 12, 8-Chloro-1-cyclopropyl-6-fluoro-1,4-dihydro-7-(3-methylaminomethyl-4-methyl-1-pyrrolidinyl)-4-oxo-3-quinolinecarboxylic acid], which MIC [1] is on record?
A: Its MIC is 0.05 µg/mL (≈ 0.123 µM).

Q: And the MIC (S. aureus Smith)?
A: The MIC was 0.05 µg/mL (≈ 0.123 µM).

Q: What about the MIC (S. epidermidis IID 866) of the same molecule?
A: Its MIC is 0.05 µg/mL (≈ 0.123 µM).

Q: And the MIC [2]?
A: Its MIC is 0.05 µg/mL (≈ 0.123 µM).

Q: What about the MIC (S. pyogenes IID 692) of the same molecule?
A: Its MIC is 0.05 µg/mL (≈ 0.123 µM).

Q: What about the MIC (E. faecalis IID 682) of the same molecule?
A: The MIC was 0.05 µg/mL (≈ 0.123 µM).

Q: And the MIC (E. coli ATCC 10536)?
A: Its MIC is 0.05 µg/mL (≈ 0.123 µM).

Q: And the MIC [3]?
A: Its MIC is 0.05 µg/mL (≈ 0.123 µM).

Q: What about the MIC (P. mirabilis IID 994) of the same molecule?
A: The MIC was 0.2 µg/mL (≈ 0.49 µM).

Q: What about the MIC [4] of the same molecule?
A: Its MIC is 0.2 µg/mL (≈ 0.49 µM).

Q: What about the MIC [5] of the same molecule?
A: Its MIC is 0.05 µg/mL (≈ 0.123 µM).

Q: And the MIC [6]?
A: The MIC was 0.2 µg/mL (≈ 0.49 µM).

Q: And the MIC [7]?
A: The MIC was 0.05 µg/mL (≈ 0.123 µM).

Q: And the MIC [8]?
A: Its MIC is 0.2 µg/mL (≈ 0.49 µM).

Q: And the MIC (Shigella sonnei IID 969)?
A: The MIC was 0.025 µg/mL (≈ 0.0613 µM).

Q: And the MIC [9]?
A: Its MIC is 0.1 µg/mL (≈ 0.245 µM).

Q: And the MIC [10]?
A: Its MIC is 0.39 µg/mL (≈ 0.956 µM).

Q: And the MIC (P. aeruginosa IID 1210)?
A: Its MIC is 1.56 µg/mL (≈ 3.82 µM).

Q: What about the MIC (P. cepacia GIFU 518; 10^6 cells/ml, Gram -, read-out: MIC) of the same molecule?
A: Its MIC is 0.78 µg/mL (≈ 1.91 µM).

Q: What about the MIC [11] of the same molecule?
A: Its MIC is 0.1 µg/mL (≈ 0.245 µM).

Q: And the MIC [12]?
A: Its MIC is 0.39 µg/mL (≈ 0.956 µM).

Q: What about the MIC [13] of the same molecule?
A: Its MIC is 0.2 µg/mL (≈ 0.49 µM).

Q: What about the MIC (B. fragilis 0558) of the same molecule?
A: The MIC was 0.1 µg/mL (≈ 0.245 µM).

Q: What about the MIC (B. fragilis 25285) of the same molecule?
A: The MIC was 0.1 µg/mL (≈ 0.245 µM).

Q: What about the MIC (B. distasonis 8503) of the same molecule?
A: The MIC was 0.39 µg/mL (≈ 0.956 µM).

Q: What about the MIC [14] of the same molecule?
A: The MIC was 0.39 µg/mL (≈ 0.956 µM).

Q: And the MIC [15]?
A: The MIC was 0.2 µg/mL (≈ 0.49 µM).

Q: What about the MIC (F. varium KYA 8501) of the same molecule?
A: The MIC was 0.78 µg/mL (≈ 1.91 µM).

Q: What about the MIC [16] of the same molecule?
A: Its MIC is 0.2 µg/mL (≈ 0.49 µM).

Q: And the MIC (C. perfringens KYA 13123)?
A: Its MIC is 0.1 µg/mL (≈ 0.245 µM).

Q: And the MIC (C. ramosum)?
A: Its MIC is 0.39 µg/mL (≈ 0.956 µM).

Q: What about the MIC [17] of the same molecule?
A: Its MIC is 0.05 µg/mL (≈ 0.123 µM).
